Data on 16 molecules can be found in patent EP0293500A1, “3-heteroalkyl-2,4.quinzaoline-diones” (AMERICAN CYANAMID COMPANY, priority 1987, dated 1988).

Structures are written as SMILES. Counter-ions that a name gives are not always drawn.

The target of assay [1] is T1, thromboxane synthetase (Rattus norvegicus, UniProt P49430).
T1 construct: The platelets were isolated by centrifuging the PRP for 10 minutes at 1060xg; from tissue; host or cells: washed blood platelets from Okamoto-Aoki spontaneously hypertensive rats (SHR)
T1 sequence (P49430 1-533): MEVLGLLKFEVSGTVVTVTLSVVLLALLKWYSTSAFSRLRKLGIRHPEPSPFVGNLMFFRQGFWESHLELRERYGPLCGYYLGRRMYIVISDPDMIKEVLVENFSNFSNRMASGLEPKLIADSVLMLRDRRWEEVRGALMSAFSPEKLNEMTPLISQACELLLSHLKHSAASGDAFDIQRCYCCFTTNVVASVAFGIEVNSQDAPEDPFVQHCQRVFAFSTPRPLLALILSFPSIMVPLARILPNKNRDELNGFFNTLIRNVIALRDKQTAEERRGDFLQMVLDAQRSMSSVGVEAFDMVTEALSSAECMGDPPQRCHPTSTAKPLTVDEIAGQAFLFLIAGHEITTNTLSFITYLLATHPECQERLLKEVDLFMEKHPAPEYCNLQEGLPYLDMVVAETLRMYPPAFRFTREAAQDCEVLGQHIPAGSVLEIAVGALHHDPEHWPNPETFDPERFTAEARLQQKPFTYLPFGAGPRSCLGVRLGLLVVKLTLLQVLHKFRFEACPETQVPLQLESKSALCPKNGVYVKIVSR
Kind of assay: Inhibition of thromboxane (TX) formation (TXB2 radioimmunoassay) in washed rat platelets. Type of assay: cell-based, Okamoto-Aoki spontaneously hypertensive rats (SHR). The conditions noted are these: percent inhibition of TXB2 formation; drug at 10^-4M; SHR platelet suspension, 10 minutes at 37 C. An excerpt:
The platelet rich plasma (PRP) was separated. […] The inhibition of thromboxane (TX) formation was studied by determing the concentration of thromboxane […] (TXB2), the stable hydrolysis product of TXA2.

Assay [2] deals with spontaneously hypertensive rats of the Okamoto strain. In words: Hypotensive activity in spontaneously hypertensive rats (method of Chan and Poorvin). The conditions noted are these: male SHR, average MABP 160±1.5 mm of mercury; gavage, 100 mg/kg or less, second identical dose 24 hours later; MABP at 28 hours after the initial dose; number of rats in brackets. The format is in vivo. On the procedure: The novel compounds of the present invention are also active hypotensive agents and were tested for hypotensive activity by the method of P. S. Chan and b. Poorvin, Clinical and Experimental Hypertension, 1 (6), 817-830 (1979). Male, 16 week old, spontaneously hypertensive rats of the Okamoto strain, from Taconic Farms, Germantown, New York having an average mean arterial blood pressure of 160±1.5 mm of mercury were used in the test. […] A second identical dose of the test compound, without sodium chloride loading is given 24 hours later. At 28 hours after the initial dose, the mean arterial blood pressure (MABP) is measured by the method of Chan and Poorvin vide supra. The procedure is repeated in a second and third rat when necessary. The results of this test on representative compounds of the present invention appear in Table II below.

Turning to `Cc1cn(CCCCn2c(=O)[nH]c3ccc(Cl)cc3c2=O)cn1` [Example 28, 6-Chloro-3-[4-(4-methyl-1H-imidazol-1-yl)butyl]-2,4(1H,3H)-quinazolinedione], testing at 100 µM in assay [1] gave an inhibition of 70%. Besides, in assay [2], the “MABP/mm Hg (no. of rats)” value is 118(2) mm Hg.
Taken in the same sequence, the figures for `Cl.O=c1c2cc(Br)ccc2nnn1CCCCn1ccnc1` [Example 82, 6-Bromo-3-[4-(1H-imidazol-1-yl)-butyl]-1,2,3-benzotriazin-4(3H)-one, monohydrochloride] were 96% and 115(2) mm Hg.
Take `CC(CCn1c(=O)[nH]c2ccccc2c1=O)n1ccnc1` (centres unmarked) [Example 20, 3-[3-(1H-Imidazol-1-yl)butyl]-2,4(1H,3H)-quinazolinedione]: the inhibition at 100 µM in assay [1] was found to be 100%. In addition, the “MABP/mm Hg (no. of rats)” value in assay [2] is listed as 121(3) mm Hg.
The molecule `Cc1cn(CCCn2cnc3ccc(Cl)cc3c2=O)cn1` [Example 139, 6-Chloro-3-[3-(4-methyl-1H-imidazol-1-yl)propyl]-4(3H)-quinazolinone] displayed an inhibition at 100 µM in assay [1] of 89%. Also, in assay [2], the “MABP/mm Hg (no. of rats)” value is 123(3) mm Hg.
In the same order, the values of `O=c1c2cc(Cl)ccc2nnn1CCCCCCn1ccnc1` [Example 100, 6-Chloro-3-[6-(1H-imidazol-1-yl)hexyl]-1,2,3-benzotriazin-4(3H)-one] are 73% and 109(2) mm Hg.
In assay [1], `O=c1[nH]c2c(Cl)cccc2c(=O)n1CCCCn1ccnc1` [Example 43, 8-Chloro-3-[4-(1H-imidazol-1-yl)butyl]-2,4(1H,3H)-quinazolinedione] had an inhibition at 100 µM of 62%. The “MABP/mm Hg (no. of rats)” value in assay [2] is reported as 85(2) mm Hg.
With `O=c1[nH]c2cc(Cl)ccc2c(=O)n1CCCCn1ccnc1` [Example 40, 7-Chloro-3-[4-(1H-imidazol-1-yl)butyl]-2,4(1H,3H)-quinazolinedione], the inhibition at 100 µM in assay [1] was found to be 59%. The “MABP/mm Hg (no. of rats)” value in assay [2] was 102(2) mm Hg.
Taken in the same sequence, the figures for `O=c1c2ccccc2nnn1CCCCCn1ccnc1` [Example 101, 3-[5-(1H-Imida-zol-1-yl)pentyl]-1,2,3-benzotria-zin-4(3H)-one, monohydrochloride] were 67% and 113(2) mm Hg.
On to `O=c1c2cc(Cl)ccc2nnn1CCCn1ccnc1` [Example 76, 6-Chloro-3-[3-(1H-imidazol-1-yl)-propyl]-1,2,3-benzotriazin-4(3H)-one], for which, in assay [1], 100 µM produced 74% inhibition. Moreover, in assay [2], the “MABP/mm Hg (no. of rats)” value was 127(3) mm Hg.
Taken in the same sequence, the figures for `O=c1c2cc(Cl)ccc2nnn1CCCCCn1ccnc1` [Example 99, 6-Chloro-3-[5-(1H-imidazol-1-yl)pentyl]-1,2,3-benzotriazin-4(3H)-one] were 82% and 117(2) mm Hg.
With `CC(CCn1cnc2ccc(Cl)cc2c1=O)n1ccnc1` (centres unmarked) [Example 140, 6-Chloro-3-[3-(1H-Imidazol-1-yl)butyl]-4(3H)-quinazolinone], 100 µM produced 100% inhibition in assay [1]. In addition, the “MABP/mm Hg (no. of rats)” value in assay [2] is reported as 114(2) mm Hg.
Turning to `Cc1ccc2nnn(CCCCn3ccnc3)c(=O)c2c1` [Example 84, 3-[4-(1H-Imidazol-1-yl)butyl]-6-methyl-1,2,3-benzotriazin-4(3H)-one], the inhibition at 100 µM in assay [1] came out at 95%. In addition, in assay [2], the “MABP/mm Hg (no. of rats)” value is reported as 106(2) mm Hg.
In the case of `O=c1c2ccccc2nnn1CCCCn1ccnc1` [Example 75, 3-[4-(1 H-Imidazol-1-yl)butyl]-1,2,3-benzotriazin-4(3H)-one], the inhibition at 100 µM in assay [1] was 68%. The “MABP/mm Hg (no. of rats)” value in assay [2] is 114(2) mm Hg.
Taken in the same sequence, the figures for `O=c1[nH]c2ccc(Cl)cc2c(=O)n1CCCCn1ccnc1` [Example 24, 6-Chloro-3-[4-(1H-imidazol-1-yl)butyl]-2,4(1H,3H)-quinazolinedione] were 93% and 106(2) mm Hg.
Take `CC(Cn1ccnc1)Cn1cnc2ccccc2c1=O.Cl.Cl` (centres unmarked) [Example 134, 3-[3-(1H-Imidazol-1-yl)-2-methylpropyl]-4(3H)-quinazolinone, dihydrochloride]: the inhibition at 100 µM in assay [1] came to 100%. In addition, the “MABP/mm Hg (no. of rats)” value in assay [2] is on record as 121(2) mm Hg.
Turning to `CC(Cn1ccnc1)Cn1c(=O)[nH]c2cc(Cl)ccc2c1=O` (centres unmarked) [Example 42, 7-Chloro-3-[3-(1H-imidazol-1-yl)-2-methylpropy]-2,4(1H,3H)-quinazolinedione], testing at 100 µM in assay [1] gave an inhibition of 75%. Besides, the “MABP/mm Hg (no. of rats)” value in assay [2] is recorded as 121(2) mm Hg.

As usually defined, the inhibition is how much of the control response was suppressed. A higher inhibition goes with a response far below the control.
